Test results published in US4829078A, “3-phenoxy (or phenylthio)--cyclopentanecarbonylamino acid analogues” (Ono Pharmaceutical Co., Ltd., priority 1985, dated 1989).

Experiments:
[1] = test system: organ slice of cat cerebral cortex; assay: inhibition test on cerebral edema using organ slice of cat cerebral cortex (NaHCO3-stimulated swelling); assay type: cell-based; settings: Felis catus, 50 min; gray matter slices, 50 minutes at 37° C., pH 7.4, NaHCO3 as stimulating agent of swelling; read-out: Inhibitory activity on cerebral edema (IC50)
Experimental: The inhibition test on cerebral edema using organ slice of cat cerebral cortex
The test was carried out by the method described in Journal of Medicinal Chemistry, Vol. 25 (No. 5), 567 (1982).
That is, brain was isolated from a cat (weighing 2≈4 kg), slices of about 1 mm in thickness was prepared, the white matter substance was removed, and the gray matter substance (100≈150 mg a test) was used for a sample. The sample was added to the following incubation medium and incubated for 50 minutes at 37° C. After the incubation, the sample was immediately weighed again to determine the swelling weight of the sample. incubation medium (osmotic pressure, 280≈290 mOsm/l)
1. Hepes Buffer (pH 7.4) . . . 2.365 ml
adjusted to pH 7.4 by NaOH
2. test compounds [dissolved in the presence of tris(hydroxymethyl)aminomethane] or water . . . 0.01 ml
3. 0.2M NaHCO3 . . . 0.125 ml (dissolved by Hepes Buffer, giving the final concentration of 10 mM in medium) […]
(C) A percentage of swelling when a slice sample was added to incubation medium comprising Hepes Buffer, the test compounds in various concentrations and NaHCO3. Above-mentioned (A), (B) and (C) were determined. Inhibition percentage of the test compounds was calculated by the following equation: [formula] IC50 value was determined by dose-response curve as a concentration in which inhibition percentage was 50.

[2] = acute toxicity test in mice by intravenous administration; settings: mouse, in vivo
Experimental: For example, in the acute toxicity test in mice by intravenous administration, LD50 value of compounds of example 1 and 1-(c) is the dose of between 200 and 400 mg/kg.

Row | Compound | IC50 [1] | LD50 [2]
1 | O=C(O)CC[C@H](NC(=O)[C@H]1CC[C@H](Oc2ccc(C(=O)c3ccccc3)c(Cl)c2Cl)C1)C(=O)O [Example 1, N-{(1S,3S)-3-(2,3-dichloro-4-benzoylphenoxy)cyclopentanecarbonyl}glutamic acid] | 3 µM | 200 to 400 mg/kg
2 | C[C@H](NC(=O)[C@H]1CC[C@H](Oc2ccc(C(=O)c3ccccc3)c(Cl)c2Cl)C1)C(=O)O [1-(c), N-{(1S,3S)-3-(2,3-dichloro-4-benzoylphenoxy)cyclopentanecarbonyl}alanine] | 0.5 µM | 200 to 400 mg/kg
